Results published in ChEMBL document CHEMBL1201862, “PubChem BioAssay data set” (2004).
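Protocol summary: plate cells (96-well), add compound at 5 concentrations, incubate 48 h, interpolate endpoints linearly. GI50 is the concentration that inhibits growth by half.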 The source made the active and inactive calls. Rule as the data show it: active = GI50 up to about 1.1 µM and inactive = higher.

Key:
Assay in all cases: NCI-60 cell line screen, 48 h
K562 = test system: K562
M14 = test system: M14
HCC 2998 = test system: HCC 2998
RPMI-8226 = test system: RPMI-8226
SK-OV-3 = test system: SK-OV-3
SF-539 = test system: SF-539
OVCAR-4 = test system: OVCAR-4
UACC-62 = test system: UACC-62
Hs-578T = test system: Hs-578T
OVCAR-8 = test system: OVCAR-8
SW-620 = test system: SW-620
ACHN = test system: ACHN
HL-60 = test system: HL-60
LOX IMVI = test system: LOX IMVI
SF-295 = test system: SF-295
SF-268 = test system: SF-268
HCT-15 = test system: HCT-15
COLO 205 = test system: COLO 205
BT-549 = test system: BT-549
HOP-62 = test system: HOP-62

Row | Compound | GI50 (K562) | GI50 (M14) | GI50 (HCC 2998) | GI50 (RPMI-8226) | GI50 (SK-OV-3) | GI50 (SF-539) | GI50 (OVCAR-4) | GI50 (UACC-62) | GI50 (Hs-578T) | GI50 (OVCAR-8) | GI50 (SW-620) | GI50 (ACHN) | GI50 (HL-60) | GI50 (LOX IMVI) | GI50 (SF-295) | GI50 (SF-268) | GI50 (HCT-15) [µM] | GI50 (COLO 205) | GI50 (BT-549) | GI50 (HOP-62)
1 | COCOC1/C=C/CCCC#C[C@H](C)C(=O)CC1 (stereo not given in full) | 2.7 µM (inactive) | 8.15 µM (inactive) | 14.6 µM (inactive) | 2.21 µM (inactive) | 15.8 µM (inactive) | 16.2 µM (inactive) | 7.83 µM (inactive) | 10 µM (inactive) | 15.5 µM (inactive) | 14.5 µM (inactive) | 2.71 µM (inactive) | 14.2 µM (inactive) | 2.32 µM (inactive) | 3.05 µM (inactive) | 16.3 µM (inactive) | 12.2 µM (inactive) | 8.57 | 5.45 µM (inactive) | 12.6 µM (inactive) | 19.5 µM (inactive)
2 | CC(=O)O[C@H]1C(=O)[C@@]2(C)[C@H]([C@H](OC(=O)c3ccco3)[C@]3(O)C[C@H](OC(=O)[C@H](O)[C@@H](NC(=O)c4ccccc4)c4ccccc4)C(C)=C1C3(C)C)[C@]1(OC(C)=O)CO[C@@H]1C[C@@H]2O | 0.078 µM (active) | 0.421 µM (active) | 0.296 µM (active) | 0.0189 µM (active) | 0.287 µM (active) | 0.0356 µM (active) | > 22.4 µM (inactive) | 0.277 µM (active) | 0.0608 µM (active) | 0.273 µM (active) | 0.146 µM (active) | 7.98 µM (inactive) | 0.0227 µM (active) | 0.129 µM (active) | 1.45 µM (inactive) | 0.185 µM (active) | 15.1 | 0.114 µM (active) | 2.81 µM (inactive) | 0.676 µM (active)
3 | CC(Oc1ccccc1Cl)C(=O)NN1C(=O)CSC1c1ccc(Cl)cc1 (stereo not given) | 6.73 µM (inactive) | 18.4 µM (inactive) | 18.4 µM (inactive) | 17.9 µM (inactive) | 18.8 µM (inactive) | 24.8 µM (inactive) | 13.7 µM (inactive) | 17.8 µM (inactive) | 20.4 µM (inactive) | 23.4 µM (inactive) | 23.4 µM (inactive) | 27.2 µM (inactive) | 7.64 µM (inactive) | 19.6 µM (inactive) | 18.5 µM (inactive) | 20.6 µM (inactive) | 19.5 | 19.6 µM (inactive) | 21.3 µM (inactive) | 17.4 µM (inactive)
4 | Cc1ccc2c(c1)C(=O)c1nc(C)ccc1C2=O | 37.1 µM (inactive) | 32.7 µM (inactive) | 34.9 µM (inactive) | 21.3 µM (inactive) | > 100 µM (inactive) | 21.7 µM (inactive) | 28.2 µM (inactive) | 24.3 µM (inactive) | > 100 µM (inactive) | 27 µM (inactive) | 33.5 µM (inactive) | 33.3 µM (inactive) | 21.3 µM (inactive) | 19.8 µM (inactive) | 38.1 µM (inactive) | 32 µM (inactive) | 22.6 | 17.3 µM (inactive) | 53.7 µM (inactive) | 69 µM (inactive)
5 | COc1ccc(-c2ncn(C[Si](C)(C)C)c2-c2ccc(OC)cc2)cc1 | 0.472 µM (active) | 3.59 µM (inactive) | 3.17 µM (inactive) | 1.69 µM (inactive) | 20 µM (inactive) | 10.5 µM (inactive) | 7.82 µM (inactive) | 3.2 µM (inactive) | 12.5 µM (inactive) | 7.06 µM (inactive) | 3.05 µM (inactive) | 7.55 µM (inactive) | 1.72 µM (inactive) | 4.89 µM (inactive) | 4.24 µM (inactive) | 12.1 µM (inactive) | 4.51 | 2.54 µM (inactive) | 22.4 µM (inactive) | 12.6 µM (inactive)
6 | CNC(=S)N/N=C(\C)c1cc(OC)ccc1O | 3.22 µM (inactive) | > 92.5 µM (inactive) | > 100 µM (inactive) | > 31.3 µM (inactive) | > 100 µM (inactive) | > 100 µM (inactive) | > 100 µM (inactive) | > 100 µM (inactive) | > 100 µM (inactive) | > 100 µM (inactive) | > 100 µM (inactive) | > 100 µM (inactive) | > 31.4 µM (inactive) | > 100 µM (inactive) | > 100 µM (inactive) | > 100 µM (inactive) | 63.1 | 0.447 µM (active) | > 100 µM (inactive) | > 100 µM (inactive)
